Among the data in patent US20190119282A1, “IMIDAZOPYRIDAZINES USEFUL AS INHIBITORS OF THE PAR-2 SIGNALING PATHWAY” (Vertex Pharmaceuticals Incorporated, priority 2013, published 2019) are IC50 values, retold here.

Assay [1] has as its target T1, PAR2 (HT-29 cells, SLIGKV activation) (Homo sapiens, UniProt P55085).
T1 construct: host or cells: HT-29 cells
T1 sequence (P55085 26-397): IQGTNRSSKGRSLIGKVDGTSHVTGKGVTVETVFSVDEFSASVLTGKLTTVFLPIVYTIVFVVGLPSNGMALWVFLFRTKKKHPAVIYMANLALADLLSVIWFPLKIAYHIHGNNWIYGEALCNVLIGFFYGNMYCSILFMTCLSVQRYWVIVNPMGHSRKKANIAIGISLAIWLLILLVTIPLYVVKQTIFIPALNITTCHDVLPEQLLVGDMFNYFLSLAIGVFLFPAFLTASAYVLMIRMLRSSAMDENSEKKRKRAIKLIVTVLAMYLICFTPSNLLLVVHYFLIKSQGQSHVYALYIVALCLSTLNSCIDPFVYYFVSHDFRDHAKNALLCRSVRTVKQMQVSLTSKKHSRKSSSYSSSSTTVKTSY
Nature of the assay: Ca FLIPR TETRA assay, ANTAGONIST mode, stimulation with 8 μM SLIGKV. In kind it is cell-based. To be noted: HT-29 cells, antagonist mode, stimulation with 8 μM SLIGKV. The procedure, abridged: (§1)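 Cells plated overnight at 37 °C, 5% CO2 in 1% FBS medium; dye loading 45 min at 37 °C then 15 min r.t.; compound added from DMSO/HBSS dilution; first read for intrinsic Ca2+ activation; 30 min r.t. incubation; antagonist read after addition of the fixed activator (8 μM SLIGKV, 1 U/mL thrombin, 3.1 U/mL trypsin or 0.6 μM UTP).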

Assay [2] deals with T2, PAR2 (HT-29 cells, trypsin activation) (Homo sapiens, UniProt P55085).
T2 construct: host or cells: HT-29 cells
T2 sequence (P55085 26-397): T1 sequence (P55085 26-397)
Briefly: Ca FLIPR TETRA assay, ANTAGONIST mode, stimulation with 3.1 U/mL trypsin. In kind it is cell-based. The conditions noted are these: HT-29 cells, antagonist mode, stimulation with 3.1 U/mL trypsin. The procedure, abridged: as §1

Assay [3] has as its system Thrombin-stimulated Ca2+ response in HT-29 cells. Nature of the assay: Ca FLIPR TETRA assay, ANTAGONIST mode, stimulation with 1 U/mL Thrombin. In kind it is cell-based, human. To be noted: Homo sapiens; HT-29 cells, antagonist mode, stimulation with 1 U/mL Thrombin. The gist of the method:
as §1

In assay [4] the test system is UTP-stimulated Ca2+ response in HT-29 cells. Nature of the assay: Ca FLIPR TETRA assay, ANTAGONIST mode, stimulation with 0.6 μM UTP. In kind it is cell-based, human. To be noted: Homo sapiens; HT-29 cells, antagonist mode, stimulation with 0.6 μM UTP. The procedure, abridged:
as §1

A value given as a limit tells only on which side of the number the result lay.

Consider `CC(C)c1cc(-c2ccc(C(F)(F)F)cc2)nn2cc(C(=O)N3CCN(C(=O)[C@H]4C[C@](O)(C(F)(F)F)C4)CC3(C)C)nc12` [Compound I-245], for which the 50% inhibitory concentration (IC50) (in general, the midpoint of a concentration-inhibition curve) in assay [1] was 0.3 nM; in assay [2], 0.6 nM; in assay [3], > 1000 nM; in assay [4] it was > 1000 nM.
Turning to `CC(C)c1cc(-c2ccc(C(F)(F)F)cc2)nn2cc(C(=O)N3CCN(C(=O)c4ccn[nH]4)CC3(C)C)nc12` [Compound I-246], the half-maximal inhibitory concentration (IC50) is 1.7 nM in assay [1], 2 nM in assay [2], > 1000 nM in assay [3] and > 1000 nM in assay [4].
As to `CC(C)c1cc(-c2ccc(C(F)(F)F)cc2)nn2cc(C(=O)N3CCN(C(=O)c4ccncn4)CC3(C)C)nc12` [Compound I-247], the IC50 in assay [1] is 4.3 nM; in assay [2] it was 7.1 nM; in assay [3] it was > 1000 nM; in assay [4] it was > 1000 nM.
For the compound `Cn1nnnc1N1CCN(C(=O)c2cn3nc(-c4ccc(F)cc4)cc(C(C)(C)C)c3n2)C(C)(C)C1=O` [Compound I-248], the IC50 in assay [1] is 56.6 nM; in assay [2] it was 58.5 nM; in assay [3], > 1000 nM; in assay [4] it was > 1000 nM.
Take `CC(C)c1cc(-c2cccc(F)c2)nn2cc(C(=O)N3CCN(C(=O)C(C)(C)O)CC3(C)C)nc12` [Compound I-250]: the half-inhibitory concentration (IC50) in assay [1] was 57 nM; in assay [2], 128 nM; in assay [3], > 1000 nM; in assay [4] it was > 1000 nM.
On to `Cc1ccc(-c2cc(C(C)C)c3nc(C(=O)N4CCN(C(=O)C(C)(C)O)CC4(C)C)cn3n2)cc1F` [Compound I-251], for which the IC50 in assay [1] was 5.8 nM; in assay [2], 16.6 nM; in assay [3], > 1000 nM; in assay [4], > 1000 nM.
Regarding `CC(C)c1cc(-c2ccccc2)nn2cc(C(=O)N3CCN(C(=O)C(C)(C)O)CC3(C)C)nc12` [Compound I-253], the 50% inhibitory concentration (IC50) in assay [1] is 92 nM; in assay [2], 185 nM; in assay [3], > 1000 nM; in assay [4] it was > 1000 nM.
Regarding `Cc1ccc(-c2cc(C(C)C)c3nc(C(=O)N4CCN(C(=O)[C@H]5C[C@](O)(C(F)(F)F)C5)CC4(C)C)cn3n2)cc1` [Compound I-254], the half-maximal inhibitory concentration (IC50) was 0.2 nM in assay [1], 0.3 nM in assay [2], > 1000 nM in assay [3] and > 1000 nM in assay [4].
With `Cc1ccc(-c2cc(C(C)C)c3nc(C(=O)N4CCN(C(=O)c5ccn[nH]5)CC4(C)C)cn3n2)cc1` [Compound I-255], the IC50 is 3.6 nM in assay [1], 3.8 nM in assay [2], > 1000 nM in assay [3] and > 1000 nM in assay [4].
`Cc1ccc(-c2cc(C(C)C)c3nc(C(=O)N4CCN(C(=O)c5ccncn5)CC4(C)C)cn3n2)cc1` [Compound I-256]: the 50% inhibitory concentration (IC50) was 6.1 nM in assay [1], 12.3 nM in assay [2], > 1000 nM in assay [3] and > 1000 nM in assay [4].
Turning to `CC(C)c1cc(-c2ccc(F)c(F)c2)nn2cc(C(=O)N3CCN(C(=O)[C@H]4C[C@](O)(C(F)(F)F)C4)CC3(C)C)nc12` [Compound I-257], the IC50 was 0.1 nM in assay [1], 0.2 nM in assay [2], > 100 nM in assay [3] and > 100 nM in assay [4].
As to `CC(C)c1cc(-c2ccc(F)c(F)c2)nn2cc(C(=O)N3CCN(C(=O)c4ccn[nH]4)CC3(C)C)nc12` [Compound I-258], the concentration for half-maximal inhibition (IC50) was 1.7 nM in assay [1], 1.9 nM in assay [2], > 1000 nM in assay [3] and > 1000 nM in assay [4].
With `CC(C)c1cc(-c2ccc(F)c(F)c2)nn2cc(C(=O)N3CCN(C(=O)c4ccncn4)CC3(C)C)nc12` [Compound I-259], the IC50 in assay [1] is 6.2 nM; in assay [2], 16.5 nM; in assay [3] it was > 1000 nM; in assay [4], > 1000 nM.
On to `Cc1cc(-c2cc(C(C)C)c3nc(C(=O)N4CCN(C(=O)[C@H]5C[C@](O)(C(F)(F)F)C5)CC4(C)C)cn3n2)ccc1F` [Compound I-260], for which the IC50 in assay [1] is 0.7 nM; in assay [2], 1.1 nM; in assay [3], > 100 nM; in assay [4] it was > 100 nM.
